Experimental data: patent US10047089B2, “Dihydro-6-azaphenalene derivatives for the treatment of CNS, oncological diseases and related disorders” (Collaborative Medicinal Development, LLC, priority 2012, dated 2018)

Columns and labels:
[1] = target: T1, zinc induced Aß aggregates (Homo sapiens, UniProt P05067); assay: Bis-ANS fluorescence assay: reversal (disaggregation) of zinc induced Aß aggregates; assay type: biochemical; settings: bisANS assay, zinc induced aggregates (FIG. 1, solid arrow)
T1 construct: Effect of bis-ANS on Aβ1-42 Solubility and Precipitation by Zn^2+
T1 sequence (P05067 672-713): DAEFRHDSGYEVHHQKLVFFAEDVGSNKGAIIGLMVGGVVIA
Excerpt: (§1) Measurement of inhibition or reversal of protein aggregation may be carried out using such assays as Bis-ANS Fluorescence as described in, for example, W. T. Chen et al., J. Biol. Chem, 2011, 286 (11), 9646, or thioflavin T assay as disclosed herein. FIG. 1 depicts the measurement of aggregation prevention by added zinc and disaggregation of zinc induced aggregates by AC047 in a bisANS assay. In the presence of soluble Aß, zinc induces aggregation within milliseconds. This aggregation is detected by an increase in bisANS fluorescence. An excess of EDTA serves as a control by binding zinc and preventing aggregation. Both prevention of aggregation and disaggregation can be detected in the assay. […] The compounds described above were evaluated for the inhibition and reversal of protein aggregation as carried out using such assays as Bis-ANS Fluorescence as described in, for example, J. Biol. Chem, 2011, 286 (11), 9646. All compounds prepared above were measured to show EC50 between 0.000001 to 0.10 mM in both assays in the presence of Zinc (II). Aβ1-42 (25 μM) in Tris-HCl buffer (50 mM, pH7.4) was incubated at RT for 10 min in the presence or absence of ZnCl2 (25 μM) and bis-ANS (50 μM). […] A sample of the supernatant was then collected and compared by dot blot for peptide content to the sample of starting material to quantify how much original peptide had been lost due to precipitation.

Aß = target: T2, Aß (Homo sapiens, UniProt P05067); assay: Bis-ANS fluorescence assay: inhibition (prevention) of zinc induced Aß aggregation; assay type: biochemical; settings: bisANS assay, soluble Aß plus added zinc (FIG. 1, dotted arrow)
T2 construct: Effect of bis-ANS on Aβ1-42 Solubility and Precipitation by Zn^2+
T2 sequence (P05067 672-713): as above
Excerpt: as §1

With `O=C1c2ccnc3c(O)ccc(c23)C(=O)N1Cc1ccccc1` [AC047, 5-benzyl-9-hydroxy-4H-benzo[de][2,6]naphthyridine-4,6(5H)-dione] as the compound, how does the “elimination of zinc induced Aß aggregates (disaggregation)” value [1] read?
Its value is “can eliminate zinc induced Aß aggregates”.

What about the “prevention of zinc induced aggregation” value (Aß) of the same compound?
The value was “can prevent zinc induced aggregation”.
